Laboratory results reported in patent publication US12240904B2, “Use of anti-PD-1 antibody in combination with famitinib in preparation of drug for treating tumors” (Jiangsu Hengrui Medicine Co., Ltd., priority 2018, dated 2025).
Where two headings read alike, the source gives them in different places. Blank lines part the entries; values can stand above or below the compound they belong to.

Tests used:
Axl = target: T1, Axl (Homo sapiens, UniProt P30530); test: IC50Profiler in vitro kinase activity; assay type: biochemical; conditions: ATP 10 μM
T1 construct: purchased
T1 sequence (P30530 26-894): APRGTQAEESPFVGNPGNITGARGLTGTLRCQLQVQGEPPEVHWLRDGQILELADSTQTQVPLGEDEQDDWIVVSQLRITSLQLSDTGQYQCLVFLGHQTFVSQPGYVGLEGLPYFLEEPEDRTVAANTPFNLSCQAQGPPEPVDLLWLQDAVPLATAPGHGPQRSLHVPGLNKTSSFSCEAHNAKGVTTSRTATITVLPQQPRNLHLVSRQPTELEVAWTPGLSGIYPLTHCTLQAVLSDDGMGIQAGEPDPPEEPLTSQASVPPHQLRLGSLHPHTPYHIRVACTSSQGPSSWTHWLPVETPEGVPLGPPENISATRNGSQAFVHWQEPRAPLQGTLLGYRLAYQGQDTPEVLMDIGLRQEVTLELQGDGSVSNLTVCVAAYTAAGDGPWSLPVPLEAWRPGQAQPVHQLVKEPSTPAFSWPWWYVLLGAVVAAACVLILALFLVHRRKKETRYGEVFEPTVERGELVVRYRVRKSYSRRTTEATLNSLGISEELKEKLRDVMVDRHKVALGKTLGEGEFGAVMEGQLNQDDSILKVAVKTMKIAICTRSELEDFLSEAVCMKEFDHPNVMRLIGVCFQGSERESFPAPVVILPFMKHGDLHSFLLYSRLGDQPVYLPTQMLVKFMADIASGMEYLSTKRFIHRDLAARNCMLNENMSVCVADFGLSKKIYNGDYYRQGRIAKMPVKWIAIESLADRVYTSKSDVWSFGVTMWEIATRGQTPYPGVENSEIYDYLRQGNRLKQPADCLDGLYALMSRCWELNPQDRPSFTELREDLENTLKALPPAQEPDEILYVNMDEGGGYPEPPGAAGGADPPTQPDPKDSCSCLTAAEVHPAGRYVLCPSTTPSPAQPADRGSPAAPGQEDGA
Experimental: (§1) (1) Experimental Procedures for IC50Profiler™
(§2) Appropriate amounts of kinase and peptide substrates were separately mixed with different concentrations of famitinib malate (1 nM, 3 nM, 10 nM, 30 nM, 100 nM, 300 nM, 1 μM, 3 μM, 10 μM) and incubated for 60 min at room temperature. Magnesium acetate and [gamma-33P]-ATP were added to initiate the kinase-catalyzed reaction, and the reaction was carried out at room temperature for 40 minutes. After the reaction was finished, 3% phosphoric acid solution was added to terminate the reaction. 10 μL of the reaction mixture was taken and added onto a P30 filter membrane to be filtered. The membrane was washed with 75 mM phosphate buffer for 3 times and washed once with methanol to remove free [gamma-33P]-ATP. The protein was fixed, and the membrane was dried. The liquid scintillation analyzer was used to determine the amount of peptide substrate by counting the amount of 33P.

Mer = target: T2, Mer (Homo sapiens, UniProt Q12866); test: IC50Profiler in vitro kinase activity; assay type: biochemical; conditions: ATP 10 μM
T2 construct: purchased
T2 sequence (Q12866 21-999): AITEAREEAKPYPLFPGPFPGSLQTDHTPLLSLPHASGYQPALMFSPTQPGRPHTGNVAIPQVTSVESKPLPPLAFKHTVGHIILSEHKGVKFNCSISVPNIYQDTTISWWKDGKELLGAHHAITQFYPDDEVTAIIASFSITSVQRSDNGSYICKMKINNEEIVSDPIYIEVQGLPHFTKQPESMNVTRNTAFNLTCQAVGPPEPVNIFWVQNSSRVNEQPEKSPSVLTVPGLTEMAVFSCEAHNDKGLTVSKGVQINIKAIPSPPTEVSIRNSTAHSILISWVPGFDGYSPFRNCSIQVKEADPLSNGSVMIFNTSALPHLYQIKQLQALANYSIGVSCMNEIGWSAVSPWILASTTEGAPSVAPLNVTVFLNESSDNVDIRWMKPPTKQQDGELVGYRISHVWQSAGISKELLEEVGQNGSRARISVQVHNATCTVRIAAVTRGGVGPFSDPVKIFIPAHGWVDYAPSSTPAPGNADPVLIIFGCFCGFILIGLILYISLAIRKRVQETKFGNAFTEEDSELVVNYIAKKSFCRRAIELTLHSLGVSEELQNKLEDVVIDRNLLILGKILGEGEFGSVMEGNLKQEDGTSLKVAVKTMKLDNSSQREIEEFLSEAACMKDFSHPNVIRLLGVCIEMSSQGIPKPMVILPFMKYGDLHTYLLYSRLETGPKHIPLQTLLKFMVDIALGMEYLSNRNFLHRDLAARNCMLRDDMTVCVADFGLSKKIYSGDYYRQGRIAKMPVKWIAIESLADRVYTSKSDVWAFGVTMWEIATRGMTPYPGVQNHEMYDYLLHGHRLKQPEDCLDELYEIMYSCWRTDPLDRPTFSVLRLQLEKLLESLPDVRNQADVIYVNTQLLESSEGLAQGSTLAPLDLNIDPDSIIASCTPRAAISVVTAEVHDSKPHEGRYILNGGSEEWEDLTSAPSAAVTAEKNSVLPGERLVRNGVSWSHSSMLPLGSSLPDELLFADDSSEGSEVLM
Experimental: as §1, §2

TYRO3 (Rse) = target: T3, TYRO3 (Rse) (Homo sapiens, UniProt Q06418); test: IC50Profiler in vitro kinase activity; assay type: biochemical; conditions: ATP 10 μM
T3 construct: purchased
T3 sequence (Q06418 41-890): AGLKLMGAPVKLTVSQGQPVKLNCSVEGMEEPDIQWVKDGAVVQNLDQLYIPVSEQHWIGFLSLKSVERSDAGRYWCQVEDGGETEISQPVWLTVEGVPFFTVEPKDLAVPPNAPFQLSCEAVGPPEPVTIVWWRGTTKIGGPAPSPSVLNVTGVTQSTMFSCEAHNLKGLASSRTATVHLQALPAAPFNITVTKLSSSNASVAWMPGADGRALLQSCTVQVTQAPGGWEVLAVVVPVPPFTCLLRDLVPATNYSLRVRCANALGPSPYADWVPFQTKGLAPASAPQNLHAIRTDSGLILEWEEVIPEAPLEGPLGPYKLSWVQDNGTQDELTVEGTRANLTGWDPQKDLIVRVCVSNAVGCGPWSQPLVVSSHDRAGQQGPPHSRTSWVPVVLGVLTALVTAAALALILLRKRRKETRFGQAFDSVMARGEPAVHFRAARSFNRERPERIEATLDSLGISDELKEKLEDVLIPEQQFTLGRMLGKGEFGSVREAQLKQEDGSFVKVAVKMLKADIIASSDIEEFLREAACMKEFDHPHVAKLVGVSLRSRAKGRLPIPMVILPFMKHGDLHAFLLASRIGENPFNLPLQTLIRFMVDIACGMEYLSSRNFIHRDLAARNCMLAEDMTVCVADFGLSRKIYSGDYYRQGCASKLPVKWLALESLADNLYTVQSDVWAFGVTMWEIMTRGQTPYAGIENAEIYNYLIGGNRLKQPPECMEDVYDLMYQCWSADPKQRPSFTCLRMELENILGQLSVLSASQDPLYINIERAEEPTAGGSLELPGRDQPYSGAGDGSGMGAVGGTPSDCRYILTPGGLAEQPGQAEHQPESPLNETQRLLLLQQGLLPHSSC
Experimental: as §1, §2

[1] = clinical study, pharmacokinetics of Compound B; assay type: in vivo, human; conditions: for AUC: human, blood, oral
Description: In the present disclosure, “AUC” refers to the area surrounded by the pharmacokinetic blood drug concentration curve versus time axis. This parameter is an important indicator for evaluating the degree of drug absorption, reflecting the exposure profiles of the drug in vivo. Since the blood drug concentration in pharmacokinetic studies can only be observed up to a certain time point t, AUC can be expressed in the following two means: AUC (0-t) and AUC (0-∞), wherein AUC (0-t) is derived from the trapezoidal area, and AUC (0-∞) is calculated by the formula: AUC (0-∞)=AUC (0-t)+end point concentration/end point elimination rate. The AUC mentioned in the present application refers to the averaged AUC0-24 of the patient reaching a steady state after a single administration or multiple administrations, preferably the averaged AUC0-24 of the patient reaching a steady state after multiple administrations (i.e. AUCss).
Compound A: intravenous injection, 200 mg, once every 3 weeks, 1 cycle every 3 weeks; Compound B: 20 mg or 15 mg, oral administration, once a day.
Among the 12 subjects who participated in the pharmacokinetic study, PK blood was collected from 9 subjects.

kidney cancer = conditions: Compound B 25 mg, q.d., alone; cited from earlier work
[2] = tested on: advanced/metastatic colorectal cancer; conditions: 25 mg, once a day, cited from earlier work
[3] = administration alone, 20 mg (n = 8)
[4] = co-administration with Compound A, 20 mg (n = 9)

IC50 (Axl): 36.8 nM
IC50 (Mer): 4.35 nM
IC50 (TYRO3 (Rse)): 326 nM
Css, max, Geomean (Geometric % CV) [1, 3]: 59.9 (44.4) ng/mL
Css, max, Mean ± SD [1, 3]: 64.3 ± 23.8 ng/mL
Css, min, Geomean (Geometric CV %) [1, 3]: 29.8 (56.6) ng/mL
Css, min, Mean ± SD [1, 3]: 33.2 ± 14.6 ng/mL
Tss, max, Median (Min, Max) [1, 3]: 6 (2, 8) h
exposure amount of Compound B compared to administration alone ([1]; co-administrated with Compound A): increased
Css, max, Geomean (Geometric % CV) [1, 4]: 71.6 (24.3) ng/mL
Css, max, Mean ± SD [1, 4]: 73.4 ± 16.8 ng/mL
Css, min, Geomean (Geometric CV %) [1, 4]: 36.6 (28.8) ng/mL
Css, min, Mean ± SD [1, 4]: 38.0 ± 11.0 ng/mL
Tss, max, Median (Min, Max) [1, 4]: 6 (4, 10) h
AUC ([1]; 20 mg, administration alone, 20 mg (n = 8), read-out: AUCss, Geomean (Geometric % CV)): 1090 ng·h/mL
AUC ([1]; 20 mg, administration alone, 20 mg (n = 8), read-out: AUCss, Mean ± SD): 1180 ± 465 ng·h/mL
AUC ([1]; co-administration with Compound A, 20 mg (n = 9), read-out: AUCss, Geomean (Geometric % CV)): 1330 ng·h/mL
AUC ([1]; co-administration with Compound A, 20 mg (n = 9), read-out: AUCss, Mean ± SD): 1360 ± 300 ng·h/mL
Structure (SMILES): CCN(CC)CCN1CCc2[nH]c(/C=C3\C(=O)Nc4ccc(F)cc43)c(C)c2C1=O [Compound B, famitinib malate]
ORR (kidney cancer): 36%

Structure (SMILES): CCN(CC)CCN1CCc2[nH]c(/C=C3\C(=O)Nc4ccc(F)cc43)c(C)c2C1=O [famitinib]
improvement of progression-free survival (PFS) compared to the placebo group ([2]; period of 42 days): 1.3 months
HR (PFS vs placebo) [2]: 0.596
adverse events [2]: adverse events are under control
disease control rate (DCR) [2]: 59.8%
median survival (mOS) [2]: 7.5 months
objective remission rate (ORR) [2]: 2.2%
